Data reported in patent US10358446B2, “Bruton's tyrosine kinase inhibitors” (Zibo Biopolar Changsheng Pharmaceutical Co. Ltd., priority 2015, dated 2019).
pIC50: −log10 of the molar value.

Target: BTK (Homo sapiens (Human), UniProt Q06187)
Test: Btk kinase assay (HTRF)
Assay type: biochemical
Conditions: [ATP]=80 μM, BTK=3.4 nM; read-out: BTK Inhibition
In short: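 HTRF kinase read-out (665/615 nm ratio, excitation 330 nm) after EDTA quench and 1 h detection incubation. Reaction: 3.4 nM BTK, ATP 80 μM, peptide substrate 1 μM, compound, HEPES pH 7.0 buffer, 1 h; IC50 derived using uninhibited and enzyme-free controls.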

BTK, sequence (Q06187 whole entry, species assumed): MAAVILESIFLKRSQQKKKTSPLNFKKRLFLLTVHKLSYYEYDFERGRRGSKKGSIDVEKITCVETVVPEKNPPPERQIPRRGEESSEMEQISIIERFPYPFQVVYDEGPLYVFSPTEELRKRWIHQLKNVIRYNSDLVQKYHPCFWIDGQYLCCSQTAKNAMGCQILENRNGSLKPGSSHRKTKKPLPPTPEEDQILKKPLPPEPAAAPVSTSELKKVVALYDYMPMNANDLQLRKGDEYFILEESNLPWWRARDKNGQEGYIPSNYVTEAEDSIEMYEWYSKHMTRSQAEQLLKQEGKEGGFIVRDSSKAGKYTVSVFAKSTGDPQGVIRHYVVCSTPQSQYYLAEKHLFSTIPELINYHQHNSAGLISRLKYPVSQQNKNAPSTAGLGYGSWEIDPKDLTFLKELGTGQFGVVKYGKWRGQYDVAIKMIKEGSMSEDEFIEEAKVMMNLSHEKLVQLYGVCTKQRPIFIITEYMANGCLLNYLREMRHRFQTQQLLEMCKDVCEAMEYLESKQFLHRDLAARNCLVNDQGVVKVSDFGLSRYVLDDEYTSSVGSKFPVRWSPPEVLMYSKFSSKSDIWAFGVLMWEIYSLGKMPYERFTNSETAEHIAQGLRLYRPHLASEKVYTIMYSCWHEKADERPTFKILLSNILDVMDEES

| Compound | pIC50 |
| --- | --- |
| C=CC(=O)N1CC[C@@H](n2c(=O)n(-c3ccc(OCc4ccc(F)cc4F)cc3)c3cnccc32)C1 [Example 199, (R)-1-(1-acryloylpyrrolidin-3-yl)-3-(4-((2,4-difluorobenzyl)oxy)phenyl)-1H-imidazo[4,5-c]pyridin-2(3H)-one] | 6.00 to 7.00 |
| CC(=O)N1CC[C@@H](n2c(=O)n(-c3ccc(Oc4ccccc4)cc3)c3cnccc32)C1 [Example 32, (R)-1-(1-acetylpyrrolidin-3-yl)-3-(4-phenoxyphenyl)-1H-imidazo[4,5-c]pyridin-2(3H)-one] | ≤ 5.00 |
| C=CC(=O)N1CCC(n2c(=O)n(-c3ccc(Oc4cccnn4)cc3)c3cnccc32)C1 (centres unmarked) [Example 165, 1-(1-acryloylpyrrolidin-3-yl)-3-(4-(pyridazin-3-yloxy)phenyl)-1H-imidazo[4,5-c]pyridin-2(3H)-one] | 6.00 to 7.00 |
| C=CC(=O)N1CC[C@@H](n2c(=O)n(-c3ccc(Oc4cccc(OC)c4F)cc3)c3cncc(C)c32)C1 [Example 172, (R)-1-(1-acryloylpyrrolidin-3-yl)-3-(4-(2-fluoro-3-methoxyphenoxy)phenyl)-7-methyl-1H-imidazo[4,5-c]pyridin-2(3H)-one] | ≥ 8.00 |
| C=CC(=O)N1CCC(n2c(=O)n(-c3ccc(Oc4ccccc4)c(C)c3)c3cnccc32)C1 (centres unmarked) [Example 91, 1-(1-acryloylpyrrolidin-3-yl)-3-(3-methy1-4-phenoxyphenyl)-1,3-dihydro-2H-imidazo[4,5-c]pyridin-2-one] | 7.00 to 8.00 |
| C=CC(=O)Nc1cccc(-n2c(=O)n(-c3cccc(Oc4cccc(Cl)c4F)c3)c3cnccc32)c1 [Example 96, N-(3-(3-(3-(3-chloro-2-fluorophenoxy)phenyl)-2-oxo-2,3-dihydro-1H-imidazo[4,5-c]pyridin-1-yl)phenyl)acrylamide] | 7.00 to 8.00 |
| C=CC(=O)Nc1cccc(-n2c(=O)n(-c3ccc(OCc4cccc(F)c4)cc3)c3cnccc32)c1 [Example 222, N-(3-(3-(4-((3-fluorobenzyl)oxy)phenyl)-2-oxo-2,3-dihydro-1H-imidazo[4,5-c]pyridin-1-yl)phenyl)acrylamide] | 7.00 to 8.00 |
| C=CC(=O)Nc1cccc(-n2c(=O)n(-c3ccc(Oc4cccc(Cl)c4Cl)cc3)c3cnccc32)c1 [Example 98, N-(3-(3-(4-(2,3-dichlorophenoxy)phenyl)-2-oxo-2,3-dihydro-1H-imidazo[4,5-c]pyridin-1-yl)phenyl)acrylamide] | 7.00 to 8.00 |
| C=CC(=O)Nc1cccc(-n2c(=O)n(-c3ccc(OCc4ccc(C(F)(F)F)cc4)cc3)c3cnccc32)c1 [Example 242, N-(3-(2-oxo-3-(4-((4-(trifluoromethyl)benzyl)oxy)phenyl)-2,3-dihydro-1H-imidazo[4,5-c]pyridin-1-yl)phenyl)acrylamide] | 6.00 to 7.00 |
| C=CC(=O)Nc1cccc(-n2c(=O)n(-c3ccc(NC(=O)c4cccc(OC)c4)cc3)c3cnccc32)c1 [Example 266, N-(4-(1-(3-acrylamidophenyl)-2-oxo-1H-imidazo[4,5-c]pyridin-3(2H)-yl)phenyl)-3-methoxybenzamide] | 6.00 to 7.00 |
| C=CC(=O)N1CC[C@@H](n2c(=O)n(-c3cccc(Oc4ccccc4)c3)c3cnccc32)C1 [Example 155, (R)-1-(1-acryloylpyrrolidin-3-yl)-3-(3-phenoxyphenyl)-1H-imidazo[4,5-c]pyridin-2(3H)-one] | 7.00 to 8.00 |
| C=CC(=O)N1CCC[C@@H](n2c(=O)n(-c3ccc(Oc4cccc(Cl)c4)cc3)c3cnccc32)C1 [Example 106, (R)-1-(1-acryloylpiperidin-3-yl)-3-(4-(3-chlorophenoxy)phenyl)-1H-imidazo[4,5-c]pyridin-2(3H)-one] | 7.00 to 8.00 |
| C=CC(=O)N1CC[C@@H](n2c(=O)n(-c3cccc(Oc4cccc(F)c4C)c3)c3cnccc32)C1 [Example 55, (R)-1-(1-acryloylpyrrolidin-3-yl)-3-(3-(3-fluoro-2-methylphenoxy)phenyl)-1H-imidazo[4,5-c]pyridin-2(3H)-one] | 7.00 to 8.00 |
| C=CC(=O)N1CC[C@@H](n2c(=O)n(-c3ccc(OCc4cccc(C(F)(F)F)c4)c(Cl)c3)c3cnccc32)C1 [Example 200, (R)-1-(1-acryloylpyrrolidin-3-yl)-3-(3-chloro-4-((3-(trifluoromethyl)benzyl)oxy)phenyl)-1H-imidazo[4,5-c]pyridine-2(3H)-one] | 6.00 to 7.00 |
| C=CC(=O)Nc1cccc(-n2c(=O)n(-c3ccc(C(=O)Nc4ccccc4)cc3)c3cnccc32)c1 [Example 254, 4-(1-(3-acrylamidophenyl)-2-oxo-1H-imidazo[4,5-c]pyridin-3(2H)-yl)-N-phenylbenzamide] | 5.00 to 6.00 |
| C=CC(=O)N1CC[C@@H](n2c(=O)n(-c3ccc(Oc4ccc(C(F)(F)F)cc4)c(Cl)c3)c3cnccc32)C1 [Example 43, (R)-1-(1-acryloylpyrrolidin-3-yl)-3-(3-chloro-4-(4-(trifluoromethyl)phenoxy)phenyl)-1H-imidazo[4,5-c]pyridin-2(3H)-one] | 6.00 to 7.00 |

| Compound | pIC50 |
| --- | --- |
| C=CC(=O)N1CC[C@@H](n2c(=O)n(-c3ccc(Oc4cccc(F)c4OC)cc3)c3cnccc32)C1 [Example 137, (R)-1-(1-acryloylpyrrolidin-3-yl)-3-(4-(3-fluoro-2-methoxyphenoxy)phenyl)-1H-imidazo[4,5-c]pyridin-2(3H)-one] | 6.00 to 7.00 |
| C=CC(=O)Nc1cccc(-n2c(=O)n(-c3ccc(NC(=O)c4ccc(OC)cc4)cc3)c3cnccc32)c1 [Example 264, N-(4-(1-(3-acrylamidophenyl)-2-oxo-1H-imidazo[4,5-c]pyridin-3(2H)-yl)phenyl)-4-methoxybenzamidee] | 6.00 to 7.00 |
| C=CC(=O)N1CC[C@@H](n2c(=O)n(-c3ccc(Oc4ccccc4)cc3)c3c(O)nccc32)C1 [Example 183, (R)-1-(1-acryloylpyrrolidin-3-yl)-4-hydroxy-3-(4-phenoxyphenyl)-1H-imidazo[4,5-c]pyridin-2(3H)-one] | ≤ 5.00 |
| C=CC(=O)N1CC[C@@H](n2c(=O)n(-c3ccc(OCc4ccccc4F)cc3)c3cnccc32)C1 [Example 216, (R)-1-(1-acryloylpyrrolidin-3-yl)-3-(4-((2-fluorobenzyl)oxy)phenyl)-1H-imidazo[4,5-c]pyridin-2(3H)-one] | 6.00 to 7.00 |
| C=CC(=O)Nc1cccc(-n2c(=O)n(-c3ccc(OCc4ccccc4F)c(F)c3)c3cnccc32)c1 [Example 217, N-(3-(3-(3-fluoro-4-((2-fluorobenzyl)oxy)phenyl)-2-oxo-2,3-dihydro-1H-imidazo[4,5-c]pyridin-1-yl)phenyl)acrylamide] | 6.00 to 7.00 |
| C=CC(=O)N1CCC(n2c(=O)n(-c3ccc(Oc4cccc(OC(F)(F)F)c4)cc3)c3cnccc32)C1 (centres unmarked) [Example 112, 1-(1-acryloylpyrrolidin-3-yl)-3-(4-(3-(trifluoromethoxy)phenoxy)phenyl)-1H-imidazo[4,5-c]pyridin-2(3H)-one] | 7.00 to 8.00 |
| C=CC(=O)Nc1cccc(-n2c(=O)n(-c3ccc(Oc4ccc(C(F)(F)F)cc4)cc3)c3cnccc32)c1 [Example 123, N-(3-(2-oxo-3-(4-(4-(trifluoromethyl)phenoxy)phenyl)-2,3-dihydro-1H-imidazo[4,5-c]pyridin-1-yl)phenyl)acrylamide] | ≤ 5.00 |
| C=CC(=O)Nc1cccc(-n2c(=O)n(-c3ccc(Oc4ccccc4)c(Cl)c3)c3cnccc32)c1 [Example 73, N-(3-(3-(3-chloro-4-phenoxyphenyl)-2-oxo-2,3-dihydro-1H-imidazo[4,5-c]pyridin-1-yl)phenyl)acrylamide] | 7.00 to 8.00 |
| C=CC(=O)Nc1cccc(-n2c(=O)n(-c3ccc(Oc4cccc(OCC)c4)cc3)c3cnccc32)c1 [Example 113, N-(3-(3-(4-(3-ethoxyphenoxy)phenyl)-2-oxo-2,3-dihydro-1H-imidazo[4,5-c]pyridin-1-yl)phenyl)acrylamide] | 7.00 to 8.00 |
| C=CC(=O)Nc1cccc(-n2c(=O)n(-c3ccc(OCc4cccc(C(F)(F)F)c4)c(Cl)c3)c3cnccc32)c1 [Example 243, N-(3-(3-(3-chloro-4-((3-(trifluoromethyl)benzyl)oxy)phenyl)-2-oxo-2,3-dihydro-1H-imidazo[4,5-c]pyridin-1-yl)phenyl)acrylamide] | 6.00 to 7.00 |
| C=CC(=O)Nc1cccc(-n2c(=O)n(-c3ccc(OCc4ccccc4F)cc3)c3cnccc32)c1 [Example 228, N-(3-(3-(4-((2-fluorobenzyl)oxy)phenyl)-2-oxo-2,3-dihydro-1H-imidazo[4,5-c]pyridin-1-yl)phenyl)acrylamide] | 6.00 to 7.00 |
| C=CC(=O)N1CC[C@@H](n2c(=O)n(-c3ccc(OCc4ccccc4C(F)(F)F)c(Cl)c3)c3cnccc32)C1 [Example 203, (R)-1-(1-acryloylpyrrolidin-3-yl)-3-(3-chloro-4-((2-(trifluoromethyl)benzyl)oxy)phenyl)-1H-imidazo[4,5-c]pyridin-2(3H)-one] | 6.00 to 7.00 |
| C=CC(=O)Nc1cccc(-n2c(=O)n(-c3ccc(Oc4ccccc4)cc3)c3cccnc32)c1 [Example 116, N-(3-(2-oxo-1-(4-phenoxyphenyl)-1H-imidazo[4,5-b]pyridin-3(2H)-yl)phenyl)acrylamide] | 6.00 to 7.00 |
| C=CC(=O)Nc1cccc(-n2c(=O)n(-c3ccc(Oc4cccc(OC(C)C)c4)c(F)c3)c3cnccc32)c1 [Example 48, N-(3-(3-(3-fluoro-4-(3-isopropoxyphenoxy)phenyl)-2-oxo-2,3-dihydro-1H-imidazo[4,5-c]pyridin-1-yl)phenyl)acrylamide] | 7.00 to 8.00 |
| C=CC(=O)N1CC[C@@H](n2c(=O)n(-c3ccc(Oc4cccc(F)c4)c(F)c3)c3cnccc32)C1 [Example 77, (R)-1-(1-acryloylpyrrolidin-3-yl)-3-(3-fluoro-4-(3-fluorophenoxy)phenyl)-1H-imidazo[4,5-c]pyridin-2(3H)-one] | 7.00 to 8.00 |
| C=CC(=O)N1CC[C@@H](n2c(=O)n(-c3ccc(Oc4ccccc4)cc3)c3cccnc32)C1 [Example 120, (R)-3-(1-acryloylpyrrolidin-3-yl)-1-(4-phenoxyphenyl)-1H-imidazo[4,5-b]pyridin-2(3H)-one] | 5.00 to 6.00 |
